Test results from US20130004481A1, “ANTICANCER THERAPY” (BOEHRINGER INGELHEIM INTERNATIONAL GMBH, priority 2011, published 2013).
pIC50: −log10 of the molar value.

What follows are compounds tested against T1, wild type (wt)-Xenopus laevis Aurora B/INCENP complex (Xenopus laevis, UniProt Q6DE08) (assay: Radioactive kinase assay using wt Xenopus laevis Aurora B/INCENP complex). Details: 100 μM ATP.
T1 construct: Purified (wt)-Xenopus laevis Aurora B^60-361/INCENP^790-847 complex was stored at −80° C; GST (cleaved yes); made in house; host or cells: E. coli BL21(DE3) with pUBS520 helper plasmid
T1 sequence (Q6DE08 60-361): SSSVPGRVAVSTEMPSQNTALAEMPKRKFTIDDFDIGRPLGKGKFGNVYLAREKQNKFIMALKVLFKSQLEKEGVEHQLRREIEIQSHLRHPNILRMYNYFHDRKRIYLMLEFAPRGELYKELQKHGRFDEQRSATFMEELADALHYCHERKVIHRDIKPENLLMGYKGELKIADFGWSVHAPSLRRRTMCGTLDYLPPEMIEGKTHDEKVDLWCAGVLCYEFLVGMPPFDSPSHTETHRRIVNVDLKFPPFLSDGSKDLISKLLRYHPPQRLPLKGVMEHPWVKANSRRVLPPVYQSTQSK
T1 sequence (O13024 790-847 partner limits assumed): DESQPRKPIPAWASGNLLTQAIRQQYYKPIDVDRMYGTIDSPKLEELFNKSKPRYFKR
Format: biochemical
Description: Radioactive Kinase Assay Using a Wild Type (wt)-Xenopus laevis Aurora B/INCENP Complex:
The kinase assays are run in the presence of 100 μM ATP using 10 μM of a substrate peptide. pAUB-IN847 was used to transform the E. coli strain BL21(DE3) containing the pUBS520 helper plasmid. Both proteins and their mutants are expressed and purified under essentially identical conditions. Protein expression is induced with 0.3 mM IPTG at an OD600 of 0.45-0.7. Expression is then continued for about 12-16 hours at 23-25° C. with agitation. […] 20-30 ml lysis buffer are used per liter of E. coli culture. Cells are lysed by sonication, and the lysates cleared by centrifugation at 12000 rpm for 45-60 min on a JA20 rotor. The supernatants are incubated with 300 μl of GST Sepharose Fast Flow (Amersham Biosciences) per liter of bacterial culture. The resin is first washed with PBS buffer and finally equilibrated with lysis buffer. After a 4-5 hour agitation at 4° C., the beads are washed with 30 volumes of lysis buffer, and then equilibrated with 30 volumes of cleavage buffer (50 mM Tris pH 7.6, 150 mM NaCl, 1 mM DTT, 1 mM EDTA). To cleave the GST from Aurora B, 10 units of Prescission protease (Amersham Biosciences) per milligram of substrate are added and the incubation is protracted for 16 hours at 4° C. The supernatant, which contains the cleaved product, is collected and loaded onto a 6 ml Resource Q column (Amersham Biosciences) equilibrated with Ion Exchange buffer (50 mM Tris pH 7.6, 150 mM NaCl, 1 mM DTT, 1 mM EDTA). The Aurora B/INCENP complex is collected in the flow through of the column. The flow-through of the Resource Q column is concentrated and loaded onto a Superdex 200 size-exclusion chromatography (SEC) column equilibrated with SEC buffer (Tris HCl 10 mM pH 7.6, NaCl 150 mM, DTT 1 mM, EDTA 1 mM). […] The final yield is about 1-2 mg of pure complex per liter of bacteria.
Assay conditions: Enzyme activity was assayed in the presence or absence of serial inhibitor dilutions.
Data analysis: Inhibitor concentrations were transformed to logarithmic values and the raw data were normalized. These normalized values were used to calculate the IC50 values. […] Each microtiter plate contained internal controls, such as blank, maximum reaction and historical reference compound.

Row | Structure (SMILES) | pIC50
1 | CCNC(=O)C#Cc1ccc2c(c1)NC(=O)/C2=C(\Nc1ccc(N2CCN(C)CC2)cc1)c1ccccc1 [Compound 1, N-ethyl-3-[3-[[4-(4-methylpiperazin-1-yl)anilino]-phenylmethylidene]-2-oxo-1H-indol-6-yl]prop-2-ynamide] | 8.70
2 | CN(C)Cc1ccc(N/C(=C2\C(=O)Nc3cc(C#CC(=O)NCC(F)F)ccc32)c2ccccc2)cc1 [Compound 2, N-(2,2-difluoroethyl)-3-[3-[[4-(dimethylaminomethyl)anilino]-phenylmethylidene]-2-oxo-1H-indol-6-yl]prop-2-ynamide] | 8.15
3 | O=C(C#Cc1ccc2c(c1)NC(=O)/C2=C(\Nc1ccc(CN2CCCC2)cc1)c1ccccc1)NCC(F)F [Compound 3, N-(2,2-difluoroethyl)-3-[2-oxo-3-[phenyl-[4-(pyrrolidin-1-ylmethyl)anilino]methylidene]-1H-indol-6-yl]prop-2-ynamide] | 8.40
4 | O=C(C#Cc1ccc2c(c1)NC(=O)/C2=C(\Nc1ccc(CN2CCCC2)cc1)c1ccccc1)NCCF [Compound 4, N-(2-fluoroethyl)-3-[2-oxo-3-[phenyl-[4-(pyrrolidin-1-ylmethyl)anilino]methylidene]-1H-indol-6-yl]prop-2-ynamide] | 8.30
5 | CCNC(=O)C#Cc1ccc2c(c1)NC(=O)/C2=C(\Nc1ccc(CN(C)C)cc1)c1ccccc1 [Compound 6, 3-[3-[[4-(dimethylaminomethyl)anilino]-phenylmethylidene]-2-oxo-1H-indol-6-yl]-N-ethylprop-2-ynamide] | 8.52
